Data on one compound can be found in patent publication US20250092395A1, “A GLUN2D INHIBITOR FOR USE IN THE TREATMENT OR RELAPSE PREVENTION OF A DEPRESSIVE EPISODE” (priority 2022, published 2025).

For experiment [1], the system named is SOM-dependent feedback loop, CA1 PCs. As to the kind of experiment: Feedback loop-activating protocol (FLAP) in CA1 PCs. In kind it is cell-based, mice.
Experiment [2] shares this test system. The description is as above. In kind it is cell-based, mice. The procedure: A 300 ms depolarizing current between +100 and +[…] was injected via the patch pipette into a PC to elicit a train of 5-10 APs. After an interval of 600 ms, one EPSP (5-10 mV amplitude) was elicited by Schaffer collateral stimulation. This pattern was continuously repeated at a frequency of 0.2 Hz. Substances were added by bath application after a stable 10 min baseline recording for an additional 20 min. For data analysis the maximum EPSP amplitudes from minutes 0-10 were averaged and compared to averaged maximum EPSP amplitudes from minutes 20-30.
The slope of the EPSP rise at 20% to 40% of its maximal amplitude, at which point an approximately linear increase in its voltage could be assumed, was fitted with Fitmaster software (HEKA, Germany). We analyzed 20 EPSPs before and 20 EPSPs 25-30 minutes after NAB-14 wash-in in the FLAP protocol for each experiment. The coefficient of variation (CV) is the standard deviation of the EPSP slopes divided by the mean. The inverse square of the CV of the postwash-in slopes was divided by the inverse square of the prewash-in slopes and plotted against the corresponding normalized slopes. Pre- and postwash-in measurements from a single experiment are connected by a line. In a standard quantal model for synaptic transmission, synaptic responses are affected either by presynaptic changes in the number of release sites and/or the probability of release or by modifications of the postsynaptic response to a single […]. A change in the ratio of CV-2 reflects a presynaptic action, whereas horizontal lines in the CV-2 plot indicate a change in postsynaptic responsiveness.
This is another data set of the same source.

SMILES strings stand for the structures. “Also recorded” adds a separate entry of the source.

Take `CN1C(=O)CN=C(c2ccccc2)c2cc(Cl)ccc21` [diazepam]: the “EPSP amplitude in the absence of AP bursts” value in experiment [1] is reported as “neither NAB14 nor diazepam wash-in significantly altered the EPSP amplitude; also recorded: no significant pre/post changes”. For the same compound, the “NAB-14-induced increase in EPSP amplitude in FLAP, in presence of diazepam” value in experiment [2] is listed as “abolished; also recorded: prevented”.
